Source: US8212112B2, “Gene participating in low temperature germinability in rice and utilization of the same” (Hokuren Federation of Agricultural Cooperatives, priority 2007, dated 2012)

Assays:
[1] = system: rice seeds (Hayamasari, NILHYqLTG-3-1, Italica Livorno); experiment: germination tests under stress conditions (ABA, GA, NaCl, mannitol, temperature); parameters: species or system rice (O. sativa); settings: for germination response at low NaCl / mannitol concentrations: concentrations lower than 250 mM mannitol and 150 mM NaCl
Method: To study the germinability under difference stress conditions, germination tests were carried out according to the method reported by Fujino et al. (2004). For low-temperature stress, seeds were placed on Petri dishes which were then loaded into an incubator. Solutions of plant hormones (ABA and GA), NaCl and mannitol at different concentrations were added to the Petri dishes which were then placed in an incubator. […] (A) is the germination at the optimal temperature of 25° C., (B) is the germination at 13° C., (C) is the sensitivity to NaCl (300 mM), (D) is the sensitivity to mannitol (500 mM), and (E) is the sensitivity to ABA ([…]). Examples of […]-3-1 (closed triangles), and Italica Livorno (open circles) are shown. The numerical values represent the mean±standard deviation (SD) for triplicates. […] In (A), the seeds were incubated in water at 25° C., 15° C., 13° C. and 10° C. In (B), GA (100, 200, 500 μM) was added at 15° C.; in (C), ABA ([…]) was added at 25° C.; in (D), NaCl (150, 250, 300 mM) was added; and in (E), mannitol (250, 500, 600 mM) was added, following which incubation was carried out. The open circles indicate controls. The low concentrations to high concentrations are indicated by, in order, open circles, triangles and squares. […] The open and closed symbols represent, respectively, the presence and absence of […]-3-1 and Italica Livorno are represented by, respectively, circles, triangles, and squares. […] Germination tests were carried out by the method reported by Fujino et al. (2004). For the low temperature stress, seeds on a Petri dish were placed in an incubator. Solutions of plant hormone (ABA and GA) and mannitol at different concentrations were added to the Petri dishes at this time before placing the dishes in the incubator.

qLTG-3-1 gene = qLTG-3-1 gene expression by Northern blot and RT-PCR analysis; parameters: species or system rice (O. sativa); settings: ABA, NaCl (250 mM), mannitol (500 mM)
Method: To carry out an analysis of gene expression, the total RNA was extracted from various organs of rice using RNAiso (TAKARA). The total RNA (0.5 μg) was reverse-transcripted with Rever Tra Ace (TOYOBO) having an Oligo(dT)20 primer, in accordance with the manufacturing guidelines. The PCR reaction was carried out using KOD-plus (TOYOBO). Each PCR reaction (10 μL) included 0.5 μL of cDNA template that had been diluted 5-fold. The specificity of each primer for the target gene was confirmed by PCR product sequencing. For the purpose of Northern blotting analysis, the total RNA (4 μg/sample) was isolated on 2.0% (w/v) agarose-modified formaldehyde gel containing 40 mM MOPS (pH 7.0), 10 mM Na-acetate, 1 mM EDTA and 2% (v/v) formaldehyde.
The RNA was transferred with 20×SSC to a positively charged nylon membrane (Roche Diagnostics). Hybridization and signal detection were carried out by, respectively, a DIG system and CDP-star (Roche Diagnostics). The PCR fragments from the primers 13-5U and 13-5L were used as the probes for Northern blot analysis. The primers and amplification conditions for RT-PCR analysis are shown subsequently in Table 5.
In this example, the expression of the qLTG-3-1 gene was studied. Using RNAiso (TAKARA), the total RNA was extracted from each organ of rice and treated with DNaseI (TAKARA). For Northern blot analysis, the total RNA (4 μg/sample) was separated on 2.0% (w/v) agarose-modified formaldehyde gel containing 40 mM of MOPS (pH 7.0), 10 mM of sodium acetate and 2% (v/v) formaldehyde.
The RNA was blotted with 20×SSC to a positively charged nylon membrane (Roche Diagnostics). Hybridization and signal detection were carried out with a DIG system and CDP-Star (Roche Diagnostics) according to the manufacturing guidelines. The PCR fragments obtained from the primers 13-5U and 13-5L were used as the probes for Northern blot analysis (Table 5).
In this example, the association between qLTG-3-1 expression and seed germination was examined. […]

With `[Cl-].[Na+]` [NaCl] the “germination response at low NaCl / mannitol concentrations” value [1] was “all the varieties showed a delay in germination” and the “qLTG-3-1 expression pattern in embryos under stress treatment” value (from here on “qLTG-3-1 expression pattern in embryos”) (qLTG-3-1 gene) was “delay and suppression of qLTG-3-1 expression”.
With `C=C1C[C@]23C[C@@]1(O)CC[C@H]2[C@@]12C=C[C@H](O)[C@@](C)(C(=O)O1)[C@H]2[C@@H]3C(=O)O` [GA] the “effect of exogenous GA on seed germination” value ([1]; 15° C., Hayamasari, NILHYqLTG-3-1 and Italica Livorno) was “did not promote seed germination in any of the genotypes”.
With `CC1=CC(=O)CC(C)(C)C1(O)/C=C/C(C)=C\C(=O)O` (stereo not shown) [ABA] the “germination response in ABA treatment” value ([1]; ABA added at 25° C.) was “a delay in germination was observed in both parents” and the “qLTG-3-1 expression pattern in embryos” value (qLTG-3-1 gene) was “delay and suppression of qLTG-3-1 expression”.
With `OC[C@@H](O)[C@@H](O)[C@H](O)[C@H](O)CO` [mannitol] the “germination response at low NaCl / mannitol concentrations” value [1] was “all the varieties showed a delay in germination” and the “qLTG-3-1 expression pattern in embryos” value (qLTG-3-1 gene) was “delay and suppression of qLTG-3-1 expression”.
